Results reported in paper PMC12606464, “Investigating NFE2L1 activators for targeted protein aggregate clearance: a follow-up study” (RSC Medicinal Chemistry, 2025).

System: Q35-YFP foci
Assay: Q35-YFP aggregation in C. elegans strain AM140
Type: in vivo, Caenorhabditis elegans
Procedure: Furthermore, we explored the role of RUN-89 in preventing huntingtin protein aggregation in C. elegans. For this AM140 strain, stably expressing aggregation-prone 35-glutamine long repeats marked with yellow fluorescence protein (Q35-YFP) were used.[82,83] A six-day treatment with 50 μM RUN-89 or a vehicle control was conducted, followed by microscopy analysis. […] These findings highlight the substantial impact of RUN-89 on foci formation or persistence, further supporting its role in suppressing pathological clustering in protein aggregation diseases or reducing stress-response assemblies.
Fig. 5 RUN-89 prevents protein aggregation and increases stress resistance in C. elegans. (A) The AM140 strain expressing aggregation-prone Q35-YFP was treated with 50 μM RUN-89 or the vehicle for 6 days, followed by microscopy analysis. Overall, 959 Q35-YFP foci (DMSO = 517; RUN-89 = 442) were identified in 102 animals (DMSO: N = 3 populations, n = 55 animals in total; RUN-89: N = 3 populations, n = 47 animals in total). The two dashed horizontal lines indicate the interquartile range, and the thick horizontal line represents the median. The Kolmogorov–Smirnov test verified a significant reduction of surface and integrated optical density of foci after RUN-89 treatment. (B) Representative images of two animals per treatment condition. Images were taken on the same day, using identical settings for the instruments used. (C) Protective effect of RUN-89 against juglone and paraquat-induced stress. A synchronized population of N2 wild-type worms was exposed to 50 μM RUN-89 for 24 hours to protect against acute oxidative stress triggered by 180 μM juglone and 200 mM paraquat. The mortality was monitored hourly over a 12 hour period. […] Results were analyzed using the Kaplan–Meier method and are presented as survival percentages with standard errors. […]
Transgenic GR2183 worms carrying the reporter gene (rpt -3p::GFP) were exposed to RUN-89 for 24 hours and for AM140 (rmIs132 [unc-54p::Q35::YFP]) to aged 6 days under treatment to establish protein aggregation model. The worms were then anesthetized with […] sodium azide and placed on glass slides with 5% agar for fluorescence microscope observation. The expression of the rpt-3p::GFP reporter in worms was directly related to the intensity of green fluorescence. Images were captured using a Zeiss Axioskop 2 Plus fluorescence microscope and a Zeiss Axio Observer A1 microscope designed for epifluorescence. Image analysis was performed to assess variations in aggregation (both the count and volume of aggregates) and fluorescence signal intensity using ImageJ software (https://imagej.nih.gov/ij/). […]

[1] = AM140, 50 μM, six-day treatment, versus DMSO

In the case of `COc1ccc(/C=C2\CC(NC(=O)C3CCCC3)C/C(=C\c3ccc(OC)c(OC)c3)C2=O)cc1OC` (stereo not shown) [RUN-89], the “Q35-YFP foci relative fluorescence density” value [1] is reported as “significant decrease”, the “Q35-YFP foci surface area” value [1] is reported as “significant decrease” and the “Q35-YFP intensity, median” value (C. elegans, Fig. 5A, DMSO median 1.00) is reported as 0.51 fold change to DMSO median. The “Q35-YFP foci surface, median” value (C. elegans, Fig. 5A, DMSO median 20) was 17 voxels.
